# Measurements as given in ChEMBL document CHEMBL1250537, “Synthesis and biological evaluation of diastereoisomerically pure N,O-nucleosides” (Bioorg Med Chem, 2010).
# How the values were obtained:
# Format in all cases: functional, cell-based
# [1] = Cytotoxicity against human LCL cells after 72 hrs by MTT assay
# Jurkat = assay: Cytotoxicity against human Jurkat cells after 72 hrs by MTT assay
# JIYOYE = assay: Cytotoxicity against human EBV-positive Jijoye cells after 72 hrs by MTT assay
Compound,IC50 [1] [µM],IC50 (Jurkat) [µM],IC50 (JIYOYE) [µM]
CN1O[C@@H](n2ccc(N)nc2=O)C[C@H]1c1ccccc1 (relative stereo),> 100,> 100,> 100
CN1O[C@@H](n2ccc(N)nc2=O)C[C@@H]1c1ccccc1 (relative stereo),> 100,> 100,> 100
Cc1cn([C@@H]2C[C@H](c3ccccc3)N(C)O2)c(=O)[nH]c1=O (relative stereo),82.5,76.6,60.9
Cc1cn([C@@H]2C[C@H](c3ccccc3)N(C(C)(C)C)O2)c(=O)[nH]c1=O (relative stereo),87.1,72.2,68.8
CC(C)(C)N1O[C@H](n2cc(F)c(=O)[nH]c2=O)C[C@@H]1c1ccccc1 (relative stereo),67.5,60.6,63.1
Cc1cn([C@@H]2C[C@H](c3ccco3)N(C(C)(C)C)O2)c(=O)[nH]c1=O (relative stereo),> 100,> 100,> 100
Cc1cn([C@@H]2C[C@H](c3ccccc3Cl)N(C)O2)c(=O)[nH]c1=O (relative stereo),52.6,8.8,28.5
Cc1cn([C@@H]2C[C@H](c3ccccc3)N(Cc3ccccc3)O2)c(=O)[nH]c1=O (relative stereo),55.2,19.3,36.9
